Test results from patent publication US20090203708A1, “NOVEL SUBSTITUTED-1-H-QUINAZOLINE-2,4-DIONE DERIVATIVES, PREPARATION METHOD THEREOF AND PHARMACEUTICAL COMPOSITION CONTAINING THE SAME” (Korea Research Institute of Chemical Technology, priority 2006, published 2009).

Key:
[1] = test system: rat maximal electroseizure threshold; settings: literature; cited from earlier work
[2] = test system: yawning, stretching, and chewing; settings: rats, literature; cited from earlier work
[3] = test system: food intake; settings: literature; cited from earlier work
[4] = test system: rotarod deficit; assay: Rotarod deficit in mice; assay type: in vivo; settings: mice, i.p. 30 min before testing
Description: In order to examine the effects of the compounds of the present invention on the central nervous system and behavior, a rotarod test was performed as follows.
Mice were placed on a plastic rod having a node 1 inch in diameter (Ugo-Basile, Milano, Italy), followed by rotating the rod at a speed of 6 rpm. 30, 60, 90 and 120 min after the administration of test compounds, the mice that fell from the rotating rod within 1 min were counted to determine rotarod deficits (%) (Dunham et al., 1957).

[5] = test system: retention of a previously learned task; settings: rats, literature; cited from earlier work
[6] = test system: extracellular glutamate levels in the frontal cortex and dorsal hippocampus; settings: literature; cited from earlier work

SMILES | anticonvulsant activity [1] | induction of yawning, stretching, and chewing behavior [2] | food intake by rats [3] | Rotarod Deficit TD50 [4] | retention of a previously learned task in water maze [5] | extracellular glutamate levels in the frontal cortex and dorsal hippocampus [6]
CNc1cc(NS(=O)(=O)c2ccc(N)cc2)nc(NC)n1 [Ro 04-6790] | possess anticonvulsant activity | capable of inducing this same effect | decreased food intake |  |  | 
COc1ccc(NS(=O)(=O)c2sc3ccc(Cl)cc3c2C)cc1N1CCNCC1 [SB-271046, reference compound] | possess anticonvulsant activity |  |  | 112 mg/kg, ip | significant improvement in retention of a previously learned task | increased extracellular glutamate levels in the frontal cortex and dorsal hippocampus by several times
